According to PubChem BioAssay (NCI):
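Tested at 5 concentrations; 48 h exposure; 96-well plates; endpoints linearly interpolated, else capped at highest concentration. Definition used: TGI = concentration required for complete inhibition of growth.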

What was measured:
Assay in all cases: NCI anticancer screen, dose series, 48 h
SW-620 colon = system: SW-620 colon
OVCAR-8 ovarian = system: OVCAR-8 ovarian
OVCAR-4 ovarian = system: OVCAR-4 ovarian
BT-549 breast = system: BT-549 breast
HOP-62 NSCLC = system: HOP-62 NSCLC
SF-539 CNS = system: SF-539 CNS
SN12C renal = system: SN12C renal
MOLT-4 leukemia = system: MOLT-4 leukemia
SK-MEL-28 melanoma = system: SK-MEL-28 melanoma
NCI/ADR-RES ovarian = system: NCI/ADR-RES ovarian

Row | SMILES | TGI (SW-620 colon) [µM] | TGI (OVCAR-8 ovarian) [µM] | TGI (OVCAR-4 ovarian) [µM] | TGI (BT-549 breast) [µM] | TGI (HOP-62 NSCLC) [µM] | TGI (SF-539 CNS) [µM] | TGI (SN12C renal) [µM] | TGI (MOLT-4 leukemia) [µM] | TGI (SK-MEL-28 melanoma) [µM] | TGI (NCI/ADR-RES ovarian) [µM]
1 | CC(C)(C)c1nc2c(o1)C(=O)c1ccccc1C2=O | 4.4 | 3.37 | 2.44 | 2.84 | 6.34 | 3.4 | 2.29 | 16.9 | 4.35 | 1.76
2 | CC(C)(C)N(Cc1ccc2c(c1)OCO2)C(=O)/C=C\S(=O)c1ccccc1 (stereo not given) | 17.5 | 6.44 | 10.7 | 10.3 | 17.7 | 6.6 | 9.03 | > 45.4 | 22.8 | 10.2
3 | O=C(O)C1CCCN1Cc1cc2ccccc2c2ccccc12 (stereo not given) | > 100 | > 100 | > 100 | > 100 | > 100 | > 100 | > 100 | > 100 | > 100 | > 100
4 | CC(=O)C(=[N+]=[N-])C(=O)OC(C)(C)C#N | > 10 | > 10 | > 10 | > 10 | > 10 | > 10 | > 10 | > 10 | > 10 | > 10
5 | CN(C)CCNc1ccc2c(=O)n(CCN(C)C)c(=O)n3c4ccc([N+](=O)[O-])cc4c(=O)c1c23 | 1.78 | 3.99 | 2.8 | 2.66 | 3.85 | 1.68 | 1.56 | 0.0685 | 2.66 | 2.1
6 | O=c1cc(N2CCOCC2)[nH]c(=O)n1-c1cccc(C(F)(F)F)c1 | > 100 | > 100 | > 100 | > 100 | > 100 | > 100 | > 100 | > 100 | > 100 | > 100
7 | Clc1ccc(Oc2ccc(N=Cc3ccc(Cl)cc3Cl)cc2Cl)cc1 | > 100 | > 100 | > 100 | 93.1 | > 100 | 65.1 | > 100 | > 100 | > 100 | 84.9
8 | CSc1nc(-c2cc3c(c(SC)n2)CCCCC3)cc2c1CCCCC2 | > 100 | > 100 | > 100 | > 100 | > 100 | > 100 | > 100 | > 100 | > 100 | > 100
9 | O=C1/C(=C\c2cccc(Oc3ccccc3)c2)S(=O)(=O)C(c2ccccc2)N1c1ccc(Cl)cc1 (stereo not given) | 34.4 | 37.3 | 52.3 | 49.9 | > 100 | 41.7 | 29 | 33.1 | 34 | 54.1
10 | COc1ccc(N2C(=O)C3ON(C(C(N)=O)c4ccccc4)C(c4ccc(-c5ccccc5)cc4)C3C2=O)cc1 (stereo not given) | > 50 | > 50 | > 50 | > 50 | > 50 | > 50 | > 50 | > 50 | > 50 | > 50
11 | COc1cc(C2c3cc4c(cc3OC(Nc3ccc(C(=O)O)cc3)C2C)OCO4)cc(OC)c1OC (stereo not given) | > 100 | > 100 | > 52.9 | > 26.8 | > 100 | 0.561 | > 100 | 25.8 | > 100 | 4.9
12 | COC(=O)C1(Cc2ccc3c(c2)CCC3)Cc2ccc3c(c2C1O)CCC3 (stereo not given) | 30.2 | 39.1 | 27.7 | 29.5 | 28 | 47.4 | 28.5 | > 100 | 32.6 | 35.9
13 | CC1=C2C(=O)[C@H]3[C@@H](CC=C4C[C@@H](O)CC[C@@]43C)[C@@H]2CC[C@]12O[C@@H]1C[C@H](C)CN[C@H]1[C@H]2C | > 79.9 | > 69.1 | > 64.5 | > 100 | > 55.2 | > 61.6 | > 60.6 | > 100 | > 92.1 | > 100
14 | C[C@H](Nc1c(O)c2c(c(O)c1Cl)C(=O)C=CC2=O)C(=O)Nc1ccc([N+](=O)[O-])cc1 | 6.49 | 5.54 | 3.14 | > 10 | 6.74 | 4.2 | 2.99 | > 10 | 4.02 | 5.05
15 | CC(C)(C)c1ccc(-c2nc3ccc([N+](=O)[O-])cc3c(=O)o2)cc1 | > 100 | 83.9 | 75.2 | 76.9 | 60.9 | 43.9 | > 100 | 46.4 | 97.1 | 79.8
16 | O=C/C(=C(/Br)I)c1ccccc1 | 2.75 | 10.6 | 10.6 | 4.86 | 29.8 | 6.11 | 3.64 | 4.28 | 2.6 | 15.2
17 | N#Cc1c(-c2ccc([N+](=O)[O-])cc2)cc(-c2ccc(Nc3ccnc4cc(C(F)(F)F)ccc34)cc2)nc1N | 59.2 | > 60.2 | 28.1 | > 75.6 | 51.3 | > 63.8 | 46.6 | 14.5 | 59.8 | 35.3
18 | CC1(C)C(=O)C(C)(C)C12SSC1(S2)C(C)(C)C(=O)C1(C)C | > 100 | > 100 | > 100 | > 100 | > 100 | > 100 | > 100 | > 100 | > 100 | > 100
